Values quoted from earlier work as cited in patent US20120040895A1, “PEPTIDE AVAILABILITY” (priority 2008, published 2012).

In the case of `CC[C@H](C)[C@H](N)C(=O)N1CCC[C@H]1C(=O)N1CCC[C@H]1C(=O)O` [IPP, Isoleucine-Proline-Proline], the “Further increase of AUC when consumed with the meal” value (yoghurt drink consumed with breakfast, versus fasted state) is listed as 30% and the “Increase of plasma IPP level (area under the concentration vs. time curve) compared to a control drink” value (yoghurt drink drunk in overnight fasted state 30 min prior to breakfast) is listed as “more than two-fold”.
